Measured values taken from US12209079B2 (GENERAL INCORPORATED ASSOCIATION PHARMA VALLEY PROJECT …, priority 2017, dated 2025).
Structures can show the parent of a compound that is named as a salt.

Tests used:
TDO in A172 cells = biological target: T1, TDO in A172 cells (Homo sapiens, UniProt P48775); experiment: TDO cell-based assay, kynurenine production in A172 cells; conditions: A 172; final concentration of the compound 10 μM; rate relative to culture without compound
T1 construct: endogenous in cells; host or cells: A172 cells
In short: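 A172 cells were preincubated with compound for 1 h, then given L-tryptophan (final 524 μM) for 24 h at 37 °C. Kynurenine was read at 460 nm after p-dimethylbenzaldehyde/TCA reagent, background-subtracted, and expressed as % of no-compound production.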

[1] = biological target: rhTDO (recombinant human TDO) (Homo sapiens, UniProt P48775); experiment: Enzyme assay using rhTDO (rate of kynurenine production); type: biochemical; conditions: 2 h; final concentration of the compound 10 μM; rate relative to reaction without compound; read-out: rhTDO-mediated kynurenine production
In short: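 Kynurenine output, as percent of untreated control after background subtraction, read at 490 nm with p-dimethylbenzaldehyde following TCA quench and 15 min heating at 50 °C. Reaction: rhTDO with compound, 10 min preincubation then 120 min at 37 °C, started by 20 mM tryptophan stock, in phosphate/ascorbate/methylene blue/catalase.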

IDO in A431 cells = biological target: T2, IDO in A431 cells (Homo sapiens, UniProt P14902); experiment: IDO cell-based assay, kynurenine production in IFN-γ stimulated A431 cells; conditions: A-431, 24 h; final concentration of the compound 10 μM; rate relative to culture without compound
T2 construct: endogenous in cells; host or cells: A431 cells, IFN-γ stimulated
In short: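 Kynurenine output was read by absorbance at 460 nm after p-dimethylbenzaldehyde/trichloroacetic acid reagent, background-corrected, and given as % of untreated wells. Before the read, cells in 178 μM L-tryptophan medium had 1 h compound preincubation, then 24 h IFN-γ stimulation (added as 100 ng/mL dilution).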

[2] = biological target: rhIDO (recombinant human IDO) (Homo sapiens, UniProt P14902); experiment: Enzyme assay using rhIDO (rate of kynurenine production); type: biochemical; conditions: 2 h; final concentration of the compound 10 μM; rate relative to reaction without compound; read-out: rhIDO-mediated kynurenine production
In short: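 Kynurenine formation, expressed as % of uncompounded reaction after background subtraction, was read by absorbance at 490 nm following TCA stop, 50 °C hydrolysis and Ehrlich-type p-dimethylbenzaldehyde staining. Recombinant human IDO with ascorbate/methylene blue/catalase was pre-exposed to compound 10 min, then reacted 120 min at 37 °C after adding 2 mM tryptophan stock.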

rhIDO (recombinant human IDO), sequence (P14902 whole entry): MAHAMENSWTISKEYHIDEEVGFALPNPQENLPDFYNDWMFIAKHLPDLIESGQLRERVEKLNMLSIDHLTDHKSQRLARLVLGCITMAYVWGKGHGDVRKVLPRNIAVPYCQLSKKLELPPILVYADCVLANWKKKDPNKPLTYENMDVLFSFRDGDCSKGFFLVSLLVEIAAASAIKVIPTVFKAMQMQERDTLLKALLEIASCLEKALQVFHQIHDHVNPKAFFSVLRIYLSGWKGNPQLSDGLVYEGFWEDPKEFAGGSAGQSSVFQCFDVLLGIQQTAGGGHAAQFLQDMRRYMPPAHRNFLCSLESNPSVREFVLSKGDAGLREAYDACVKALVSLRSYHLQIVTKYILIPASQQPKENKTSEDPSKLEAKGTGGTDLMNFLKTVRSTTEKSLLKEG
T2 sequence (P14902 whole entry): as above
T1 sequence (P48775 whole entry): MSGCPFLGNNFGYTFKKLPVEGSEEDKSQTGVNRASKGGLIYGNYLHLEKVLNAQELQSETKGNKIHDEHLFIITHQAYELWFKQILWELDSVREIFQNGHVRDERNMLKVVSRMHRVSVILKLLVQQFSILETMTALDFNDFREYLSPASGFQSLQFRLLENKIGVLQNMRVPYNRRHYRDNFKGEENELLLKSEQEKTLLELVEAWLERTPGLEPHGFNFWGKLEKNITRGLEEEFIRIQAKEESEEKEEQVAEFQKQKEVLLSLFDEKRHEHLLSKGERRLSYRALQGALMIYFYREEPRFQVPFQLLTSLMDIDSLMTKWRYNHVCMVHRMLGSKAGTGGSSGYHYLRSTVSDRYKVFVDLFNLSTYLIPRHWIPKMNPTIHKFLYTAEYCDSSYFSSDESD
rhTDO (recombinant human TDO), sequence (P48775 whole entry): as above

`COc1ccc(/N=C(\N)SCc2ccc(F)cc2CS/C(N)=N/c2ccc(OC)cc2)cc1` [Compound 128, (4-Fluoro-1,2-phenylene)bis(methylene) (E,E)-bis(N′-(4-methoxyphenyl)carbamimidothioate) dihydrobromide] showed a remaining activity at 10 µM (TDO in A172 cells) of 8%, a remaining activity at 10 µM [1] of 14% and a remaining activity at 10 µM (IDO in A431 cells) of 11%. It also gave a remaining activity at 10 µM [2] of 3%.
Molecule `N/C(=N\c1ccc(F)c(Cl)c1)SCc1ccc(F)cc1CS/C(N)=N/c1ccc(F)c(Cl)c1` [Compound 129, (4-Fluoro-1,2-phenylene)bis(methylene) (E,E)-bis(N′-(3-chloro-4-fluorophenyl)carbamimidothioate) dihydrobromide] has a remaining activity at 10 µM (TDO in A172 cells) of 14%, a remaining activity at 10 µM [1] of 8% and a remaining activity at 10 µM (IDO in A431 cells) of 7%. It also gave a remaining activity at 10 µM [2] of -2%.
`N/C(=N\c1ccc(F)cc1F)SCc1ccc(F)cc1CS/C(N)=N/c1ccc(F)cc1F` [Compound 130, (4-Fluoro-1,2-phenylene)bis(methylene) (E,E)-bis(N′-(2,4-difluorophenyl)carbamimidothioate) dihydrobromide] showed a remaining activity at 10 µM (TDO in A172 cells) of 9%, a remaining activity at 10 µM [1] of 8% and a remaining activity at 10 µM (IDO in A431 cells) of 1%. It also gave a remaining activity at 10 µM [2] of 1%.
`N=C(N)SCc1cc(F)c(F)cc1CSC(=N)N` [Compound 131, (4,5-Difluoro-1,2-phenylene)bis(methylene) dicarbamimidothioate dihydrobromide] gave a remaining activity at 10 µM (TDO in A172 cells) of 6%, a remaining activity at 10 µM [1] of 3% and a remaining activity at 10 µM (IDO in A431 cells) of 5%. The remaining activity at 10 µM [2] was 7%.
Work on `N/C(=N\c1ccc(Cl)cc1)SCc1cc(F)c(F)cc1CS/C(N)=N/c1ccc(Cl)cc1` [Compound 132, (4,5-Difluoro-1,2-phenylene)bis(methylene) (E,E)-bis(N′-(4-chlorophenyl)carbamimidothioate) dihydrobromide] yielded a remaining activity at 10 µM (TDO in A172 cells) of 5%, a remaining activity at 10 µM [1] of 5% and a remaining activity at 10 µM (IDO in A431 cells) of 11%. It also gave a remaining activity at 10 µM [2] of -2%.
For `Fc1ccc(CSC2=NCN(CCc3ccc(Cl)c(Cl)c3)CN2)c(CSC2=NCN(CCc3ccc(Cl)c(Cl)c3)CN2)c1` [Compound 133, 6,6′-(((4-Fluoro-1,2-phenylene)bis(methylene))bis(sulfanediyl))bis(3-(3,4-dichlorophenethyl)-1,2,3,4-tetrahydro-1,3,5-triazine)], the remaining activity at 10 µM (TDO in A172 cells) was 6%, the remaining activity at 10 µM [1] was 10% and the remaining activity at 10 µM (IDO in A431 cells) was 13%. The remaining activity at 10 µM [2] was 1%.
In the case of `N/C(=N\c1ccc(F)c(Cl)c1)SCc1cc(Cl)c(Cl)cc1CS/C(N)=N/c1ccc(F)c(Cl)c1` [Compound 134, (4,5-Dichloro-1,2-phenylene)bis(methylene) (E,E)-bis(N′-(3-chloro-4-fluorophenyl)carbamimidothioate) dihydrobromide], the remaining activity at 10 µM (TDO in A172 cells) is reported as 5%, the remaining activity at 10 µM [1] is reported as 5% and the remaining activity at 10 µM (IDO in A431 cells) is reported as 10%. For the same molecule, the remaining activity at 10 µM [2] was -2%.
`N/C(=N\c1ccc(Br)cc1)SCc1cc(Cl)c(Cl)cc1CS/C(N)=N/c1ccc(Br)cc1` [Compound 135, (4,5-Dichloro-1,2-phenylene)bis(methylene) (E,E)-bis(N′-(4-bromophenyl)carbamimidothioate) dihydrobromide] showed a remaining activity at 10 µM (TDO in A172 cells) of 0%, a remaining activity at 10 µM [1] of 8% and a remaining activity at 10 µM (IDO in A431 cells) of 12%. It also gave a remaining activity at 10 µM [2] of -2%.
With `N/C(=N\c1cccc(Br)c1)SCc1cc(Cl)c(Cl)cc1CS/C(N)=N/c1cccc(Br)c1` [Compound 136, (4,5-Dichloro-1,2-phenylene)bis(methylene) (E,E)-bis(N′-(3-bromophenyl)carbamimidothioate) dihydrobromide] the remaining activity at 10 µM (TDO in A172 cells) was 3%, the remaining activity at 10 µM [1] was 10% and the remaining activity at 10 µM (IDO in A431 cells) was 13%. It also gave a remaining activity at 10 µM [2] of -2%.
`N/C(=N\c1ccc(F)cc1)SCc1cc(Cl)c(Cl)cc1CS/C(N)=N/c1ccc(F)cc1` [Compound 137, (4,5-Dichloro-1,2-phenylene)bis(methylene) (E,E)-bis(N′-(4-fluorophenyl)carbamimidothioate) dihydrobromide] gave a remaining activity at 10 µM (TDO in A172 cells) of 2%, a remaining activity at 10 µM [1] of 9% and a remaining activity at 10 µM (IDO in A431 cells) of 8%. It also gave a remaining activity at 10 µM [2] of -3%.
In the case of `Cc1ccc(/N=C(\N)SCc2cc(Cl)c(Cl)cc2CS/C(N)=N/c2ccc(C)cc2)cc1` [Compound 138, (4,5-Dichloro-1,2-phenylene)bis(methylene) (E,E)-bis(N′-(p-tolyl)carbamimidothioate) dihydrobromide], the remaining activity at 10 µM (TDO in A172 cells) is reported as 0%, the remaining activity at 10 µM [1] is reported as 14% and the remaining activity at 10 µM (IDO in A431 cells) is reported as 8%. The remaining activity at 10 µM [2] was -1%.
`Fc1ccc(CN2CN=C(SCc3cc(Cl)c(Cl)cc3CSC3=NCN(Cc4ccc(F)c(Cl)c4)CN3)NC2)cc1Cl` [Compound 139, 6,6′-(((4,5-Dichloro-1,2-phenylene)bis(methylene))bis(sulfanediyl))bis(3-(3-chloro-4-fluorobenzyl)-1,2,3,4-tetrahydro-1,3,5-triazine)] gave a remaining activity at 10 µM (TDO in A172 cells) of 11%, a remaining activity at 10 µM [1] of 14% and a remaining activity at 10 µM (IDO in A431 cells) of 8%. For the same molecule, the remaining activity at 10 µM [2] was 24%.
Work on `Fc1ccc(CSC2=NCN(CCc3ccc(C(F)(F)F)cc3)CN2)c(CSC2=NCN(CCc3ccc(C(F)(F)F)cc3)CN2)c1` [Compound 140, 6,6′-(((4-Fluoro-1,2-phenylene)bis(methylene))bis(sulfanediyl))bis(3-(4-(trifluoromethyl)phenethyl)-1,2,3,4-tetrahydro-1,3,5-triazine)] yielded a remaining activity at 10 µM (TDO in A172 cells) of 9%, a remaining activity at 10 µM [1] of 16% and a remaining activity at 10 µM (IDO in A431 cells) of 15%. It also gave a remaining activity at 10 µM [2] of 34%.
Work on `FC(F)(F)c1ccc(CCN2CN=C(SCc3ccc(Br)cc3CSC3=NCN(CCc4ccc(C(F)(F)F)cc4)CN3)NC2)cc1` [Compound 141, 6,6′-(((4-Bromo-1,2-phenylene)bis(methylene))bis(sulfanediyl))bis(3-(4-(trifluoromethyl)phenethyl)-1,2,3,4-tetrahydro-1,3,5-triazine)] yielded a remaining activity at 10 µM (TDO in A172 cells) of 11%, a remaining activity at 10 µM [1] of 14% and a remaining activity at 10 µM (IDO in A431 cells) of 5%. The remaining activity at 10 µM [2] was 21%.
Molecule `FC(F)(F)c1ccc(CCN2CN=C(SCc3ccccc3CSC3=NCN(CCc4ccc(C(F)(F)F)cc4)CN3)NC2)cc1` [Compound 142, 1,2-Bis (((5-(4-(Trifluoromethyl)phenethyl)-1,4,5,6-tetrahydro-1,3,5-triazin-2-yl)thio)methyl)benzene] has a remaining activity at 10 µM (TDO in A172 cells) of 6%, a remaining activity at 10 µM [1] of 18% and a remaining activity at 10 µM (IDO in A431 cells) of 16%. The remaining activity at 10 µM [2] was 43%.
With `FC(F)(F)c1ccc(CCN2CN=C(SCc3cc(Cl)c(Cl)cc3CSC3=NCN(CCc4ccc(C(F)(F)F)cc4)CN3)NC2)cc1` [Compound 143, 6,6′-(((4,5-Dichloro-1,2-phenylene)bis(methylene))bis(sulfanediyl))bis(3-(4-(trifluoromethyl)phenethyl)-1,2,3,4-tetrahydro-1,3,5-triazine)] the remaining activity at 10 µM (TDO in A172 cells) was 7%, the remaining activity at 10 µM [1] was 6% and the remaining activity at 10 µM (IDO in A431 cells) was 9%. For the same molecule, the remaining activity at 10 µM [2] was 17%.
In the case of `Fc1ccc(CN2CN=C(SCc3ccc(Br)cc3CSC3=NCN(Cc4ccc(F)c(Cl)c4)CN3)NC2)cc1Cl` [Compound 144, 6,6′-(((4-Bromo-1,2-phenylene)bis(methylene))bis(sulfanediyl))bis(3-(3-chloro-4-fluorobenzyl)-1,2,3,4-tetrahydro-1,3,5-triazine)], the remaining activity at 10 µM (TDO in A172 cells) is reported as 18%, the remaining activity at 10 µM [1] is reported as 19% and the remaining activity at 10 µM (IDO in A431 cells) is reported as 6%. The remaining activity at 10 µM [2] was 15%.
For `Fc1ccc(CN2CN=C(SCc3ccccc3CSC3=NCN(Cc4ccc(F)c(Cl)c4)CN3)NC2)cc1Cl` [Compound 145, 1,2-Bis(((5-(3-Chloro-4-fluorobenzyl)-1,4,5,6-tetrahydro-1,3,5-triazin-2-yl)thio)methyl)benzene], the remaining activity at 10 µM (TDO in A172 cells) was 12%, the remaining activity at 10 µM [1] was 40% and the remaining activity at 10 µM (IDO in A431 cells) was 18%. The remaining activity at 10 µM [2] was 69%.
`Fc1ccc(CSC2=NCN(Cc3ccc(F)c(Cl)c3)CN2)c(CSC2=NCN(Cc3ccc(F)c(Cl)c3)CN2)c1` [Compound 146, 6,6′-(((4-Fluoro-1,2-phenylene)bis(methylene))bis(sulfanediyl))bis(3-(3-chloro-4-fluorobenzyl)-1,2,3,4-tetrahydro-1,3,5-triazine)] gave a remaining activity at 10 µM (TDO in A172 cells) of 17%, a remaining activity at 10 µM [1] of 26% and a remaining activity at 10 µM (IDO in A431 cells) of 16%. The remaining activity at 10 µM [2] was 54%.
Work on `COc1ccc(CCN2CN=C(SCc3ccc(F)cc3CSC3=NCN(CCc4ccc(OC)cc4)CN3)NC2)cc1` [Compound 147, 6,6′-(((4-Fluoro-1,2-phenylene)bis(methylene))bis(sulfanediyl))bis(3-(4-methoxyphenethyl)-1,2,3,4-tetrahydro-1,3,5-triazine)] yielded a remaining activity at 10 µM (TDO in A172 cells) of 16%, a remaining activity at 10 µM [1] of 10% and a remaining activity at 10 µM (IDO in A431 cells) of 16%. It also gave a remaining activity at 10 µM [2] of 32%.
